Read-outs that look alike come from different tables or passages of the source.
What was measured:
Assay in all cases: Kinase selectivity, P33-radiolabeled assay
Assay type in all cases: biochemical
Details in all cases: 10 μM ATP
[1] = target: T1, P38a/MAPK14 (Homo sapiens, UniProt Q16539)
T1 construct: purchased Reaction Biology Corp
Outline: (§1)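 Reactions contained 10 μM ATP and 10 μM test compound, each run in duplicate. Kinase activity is expressed as a percentage of DMSO-treated controls.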

[2] = target: T2, SSTK/TSSK6 (Homo sapiens, UniProt Q9BXA6)
T2 construct: purchased Reaction Biology Corp
T2 sequence (Q9BXA6 whole entry): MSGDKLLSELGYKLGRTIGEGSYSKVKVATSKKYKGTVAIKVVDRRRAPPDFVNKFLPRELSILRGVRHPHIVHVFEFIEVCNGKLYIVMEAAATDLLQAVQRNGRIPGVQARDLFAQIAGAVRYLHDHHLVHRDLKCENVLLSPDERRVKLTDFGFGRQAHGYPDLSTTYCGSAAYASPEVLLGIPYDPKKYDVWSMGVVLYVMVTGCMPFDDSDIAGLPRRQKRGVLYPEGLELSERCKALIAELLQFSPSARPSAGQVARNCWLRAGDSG
Outline: as §1

[3] = target: T3, CK1a1 (Homo sapiens, UniProt P48729)
T3 construct: purchased Reaction Biology Corp
T3 sequence (P48729 whole entry): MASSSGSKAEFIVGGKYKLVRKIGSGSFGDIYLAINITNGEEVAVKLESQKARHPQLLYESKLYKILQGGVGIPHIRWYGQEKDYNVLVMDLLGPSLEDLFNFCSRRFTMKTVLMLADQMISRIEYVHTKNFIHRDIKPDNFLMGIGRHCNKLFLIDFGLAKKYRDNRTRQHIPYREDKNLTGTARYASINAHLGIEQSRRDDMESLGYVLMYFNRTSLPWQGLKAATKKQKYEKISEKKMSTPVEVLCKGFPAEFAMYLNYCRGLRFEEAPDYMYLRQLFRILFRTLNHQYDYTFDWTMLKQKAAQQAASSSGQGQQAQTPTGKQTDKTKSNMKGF
Outline: as §1

[4] = target: T4, CK1g3 (Homo sapiens, UniProt Q9Y6M4)
T4 construct: purchased Reaction Biology Corp
Outline: as §1

[5] = target: T5, c-MET (Homo sapiens, UniProt P08581)
T5 construct: purchased Reaction Biology Corp
Outline: as §1

[6] = target: T6, PKCg (Homo sapiens, UniProt P05129)
T6 construct: purchased Reaction Biology Corp
Outline: as §1

[7] = target: T7, FGFR2 (Homo sapiens, UniProt P21802)
T7 construct: purchased Reaction Biology Corp
T7 sequence (P21802 22-821): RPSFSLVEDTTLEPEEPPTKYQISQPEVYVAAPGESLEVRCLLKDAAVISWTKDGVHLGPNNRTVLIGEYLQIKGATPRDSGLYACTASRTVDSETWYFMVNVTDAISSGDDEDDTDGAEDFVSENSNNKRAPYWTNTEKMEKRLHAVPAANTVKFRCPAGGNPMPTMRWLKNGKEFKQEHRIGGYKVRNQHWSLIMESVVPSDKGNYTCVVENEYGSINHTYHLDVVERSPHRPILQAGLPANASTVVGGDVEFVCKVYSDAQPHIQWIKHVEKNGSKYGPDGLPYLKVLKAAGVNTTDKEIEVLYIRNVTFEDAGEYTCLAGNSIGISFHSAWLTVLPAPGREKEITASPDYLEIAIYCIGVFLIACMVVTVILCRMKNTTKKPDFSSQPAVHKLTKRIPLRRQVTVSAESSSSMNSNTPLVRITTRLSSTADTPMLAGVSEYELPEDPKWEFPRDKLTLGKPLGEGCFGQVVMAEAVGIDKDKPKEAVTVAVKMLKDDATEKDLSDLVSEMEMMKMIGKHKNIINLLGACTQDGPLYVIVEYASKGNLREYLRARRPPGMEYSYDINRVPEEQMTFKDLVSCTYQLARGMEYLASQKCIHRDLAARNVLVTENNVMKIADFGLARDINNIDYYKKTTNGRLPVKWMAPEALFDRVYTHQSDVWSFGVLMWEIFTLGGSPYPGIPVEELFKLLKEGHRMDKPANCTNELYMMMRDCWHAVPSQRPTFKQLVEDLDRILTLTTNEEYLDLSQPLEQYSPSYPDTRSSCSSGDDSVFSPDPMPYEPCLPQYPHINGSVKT
Outline: as §1

[8] = target: T8, TBK1 (Homo sapiens, UniProt Q9UHD2)
T8 construct: purchased Reaction Biology Corp
T8 sequence (Q9UHD2 1-729): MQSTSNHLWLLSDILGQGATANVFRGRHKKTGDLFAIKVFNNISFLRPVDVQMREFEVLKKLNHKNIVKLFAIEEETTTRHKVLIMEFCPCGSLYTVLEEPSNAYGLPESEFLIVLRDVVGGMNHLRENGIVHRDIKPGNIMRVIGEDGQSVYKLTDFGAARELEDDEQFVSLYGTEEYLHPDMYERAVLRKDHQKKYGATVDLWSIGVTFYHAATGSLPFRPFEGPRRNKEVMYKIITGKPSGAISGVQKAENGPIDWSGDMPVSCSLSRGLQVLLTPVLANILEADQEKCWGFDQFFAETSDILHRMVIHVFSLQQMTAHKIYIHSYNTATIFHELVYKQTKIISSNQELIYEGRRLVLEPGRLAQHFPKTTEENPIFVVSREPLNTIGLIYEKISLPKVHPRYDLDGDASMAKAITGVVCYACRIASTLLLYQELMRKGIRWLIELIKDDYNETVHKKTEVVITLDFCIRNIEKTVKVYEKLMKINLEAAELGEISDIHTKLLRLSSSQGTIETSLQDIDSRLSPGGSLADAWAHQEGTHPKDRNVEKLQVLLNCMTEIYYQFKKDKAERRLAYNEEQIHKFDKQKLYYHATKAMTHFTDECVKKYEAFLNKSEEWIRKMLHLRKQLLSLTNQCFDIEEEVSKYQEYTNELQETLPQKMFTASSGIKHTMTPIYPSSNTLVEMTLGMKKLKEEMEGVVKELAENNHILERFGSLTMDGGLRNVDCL
Outline: as §1

[9] = target: T9, CDK3/cyclin E (Homo sapiens, UniProt Q00526)
T9 construct: purchased Reaction Biology Corp
Outline: as §1

[10] = target: T10, GRK6 (Homo sapiens, UniProt P43250)
T10 construct: purchased Reaction Biology Corp
T10 sequence (P43250 whole entry): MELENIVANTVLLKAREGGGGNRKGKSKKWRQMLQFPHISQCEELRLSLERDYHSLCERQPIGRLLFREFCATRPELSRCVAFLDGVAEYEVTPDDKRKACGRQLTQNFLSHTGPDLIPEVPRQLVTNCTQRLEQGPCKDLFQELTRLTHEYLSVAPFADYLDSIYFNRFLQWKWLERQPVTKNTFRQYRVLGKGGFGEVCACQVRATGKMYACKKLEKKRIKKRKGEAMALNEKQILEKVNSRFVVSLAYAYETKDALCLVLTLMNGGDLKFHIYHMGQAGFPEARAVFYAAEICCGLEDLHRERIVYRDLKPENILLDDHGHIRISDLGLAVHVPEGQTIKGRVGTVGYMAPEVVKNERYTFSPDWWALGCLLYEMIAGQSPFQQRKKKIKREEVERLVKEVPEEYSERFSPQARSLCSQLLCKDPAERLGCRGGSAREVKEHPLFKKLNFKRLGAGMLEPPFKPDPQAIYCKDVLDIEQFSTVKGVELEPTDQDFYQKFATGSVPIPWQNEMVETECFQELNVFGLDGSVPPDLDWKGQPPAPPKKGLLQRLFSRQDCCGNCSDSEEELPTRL
Outline: as §1

[11] = target: T11, PKCb1 (Homo sapiens, UniProt P05771)
T11 construct: purchased Reaction Biology Corp
Outline: as §1

[12] = target: T12, MLCK2/MYLK2 (Homo sapiens, UniProt Q9H1R3)
T12 construct: purchased Reaction Biology Corp
Outline: as §1

[13] = target: T13, CAMKK2 (Homo sapiens, UniProt Q96RR4)
T13 construct: purchased Reaction Biology Corp
T13 sequence (Q96RR4 whole entry): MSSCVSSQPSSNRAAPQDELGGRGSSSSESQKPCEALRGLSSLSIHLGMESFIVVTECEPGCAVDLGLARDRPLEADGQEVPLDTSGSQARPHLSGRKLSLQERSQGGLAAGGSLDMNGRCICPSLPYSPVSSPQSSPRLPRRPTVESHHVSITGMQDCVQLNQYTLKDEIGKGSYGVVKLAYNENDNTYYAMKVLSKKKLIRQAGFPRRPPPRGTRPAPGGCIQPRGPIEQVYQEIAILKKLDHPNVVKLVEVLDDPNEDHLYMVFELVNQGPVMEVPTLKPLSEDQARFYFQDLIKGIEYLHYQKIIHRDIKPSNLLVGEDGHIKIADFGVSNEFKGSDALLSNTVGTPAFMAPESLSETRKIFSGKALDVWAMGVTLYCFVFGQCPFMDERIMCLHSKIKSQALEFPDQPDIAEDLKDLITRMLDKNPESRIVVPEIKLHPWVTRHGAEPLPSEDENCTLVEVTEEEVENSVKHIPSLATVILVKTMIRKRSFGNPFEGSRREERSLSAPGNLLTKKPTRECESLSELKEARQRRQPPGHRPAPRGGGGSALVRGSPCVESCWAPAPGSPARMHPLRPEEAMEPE
Outline: as §1

[14] = target: T14, CAMK2b (Homo sapiens, UniProt Q13554)
T14 construct: purchased Reaction Biology Corp
T14 sequence (Q13554 whole entry): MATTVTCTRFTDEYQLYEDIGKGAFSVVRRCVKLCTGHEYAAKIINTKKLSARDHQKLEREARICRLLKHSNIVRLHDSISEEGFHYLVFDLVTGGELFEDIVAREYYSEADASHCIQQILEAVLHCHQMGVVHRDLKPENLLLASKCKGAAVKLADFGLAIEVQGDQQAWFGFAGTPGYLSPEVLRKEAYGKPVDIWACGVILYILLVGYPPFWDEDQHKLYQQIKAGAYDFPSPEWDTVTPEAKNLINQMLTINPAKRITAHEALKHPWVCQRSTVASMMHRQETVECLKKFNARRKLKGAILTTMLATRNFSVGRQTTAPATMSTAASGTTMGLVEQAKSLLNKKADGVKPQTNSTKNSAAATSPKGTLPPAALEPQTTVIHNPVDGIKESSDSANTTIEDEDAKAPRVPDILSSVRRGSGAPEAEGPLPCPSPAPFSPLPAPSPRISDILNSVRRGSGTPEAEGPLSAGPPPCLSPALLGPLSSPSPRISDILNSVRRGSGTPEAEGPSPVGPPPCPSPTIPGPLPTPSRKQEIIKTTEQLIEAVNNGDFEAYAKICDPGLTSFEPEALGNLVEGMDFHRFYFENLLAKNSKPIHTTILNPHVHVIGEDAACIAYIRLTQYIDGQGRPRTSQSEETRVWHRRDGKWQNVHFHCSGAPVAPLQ
Outline: as §1

[15] = target: T15, NEK4 (Homo sapiens, UniProt P51957)
T15 construct: purchased Reaction Biology Corp
Outline: as §1

[16] = target: T16, c-Kit (Homo sapiens, UniProt P10721)
T16 construct: purchased Reaction Biology Corp
Outline: as §1

[17] = target: T17, CDK5/p35 (Homo sapiens, UniProt Q00535)
T17 construct: purchased Reaction Biology Corp
T17 sequence (Q00535 whole entry): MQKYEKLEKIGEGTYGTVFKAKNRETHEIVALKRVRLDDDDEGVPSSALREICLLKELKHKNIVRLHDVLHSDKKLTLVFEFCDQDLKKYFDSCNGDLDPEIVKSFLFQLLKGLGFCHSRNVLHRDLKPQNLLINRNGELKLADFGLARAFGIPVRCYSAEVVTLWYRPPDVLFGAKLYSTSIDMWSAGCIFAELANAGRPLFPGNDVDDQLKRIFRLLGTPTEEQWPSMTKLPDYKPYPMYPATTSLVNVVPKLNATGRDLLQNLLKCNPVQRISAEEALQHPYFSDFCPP
T17 sequence (Q15078 whole entry partner): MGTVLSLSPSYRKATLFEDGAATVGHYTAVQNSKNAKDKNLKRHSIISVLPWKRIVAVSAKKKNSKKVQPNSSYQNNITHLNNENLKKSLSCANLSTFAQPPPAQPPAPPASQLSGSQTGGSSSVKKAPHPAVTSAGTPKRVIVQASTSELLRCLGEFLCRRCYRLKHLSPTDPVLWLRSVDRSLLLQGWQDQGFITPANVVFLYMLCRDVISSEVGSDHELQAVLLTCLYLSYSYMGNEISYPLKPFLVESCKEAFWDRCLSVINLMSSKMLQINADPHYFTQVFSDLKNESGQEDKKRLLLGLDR
Outline: as §1

[18] = target: T18, PKN1/PRK1 (Homo sapiens, UniProt Q16512)
T18 construct: purchased Reaction Biology Corp
T18 sequence (Q16512 whole entry): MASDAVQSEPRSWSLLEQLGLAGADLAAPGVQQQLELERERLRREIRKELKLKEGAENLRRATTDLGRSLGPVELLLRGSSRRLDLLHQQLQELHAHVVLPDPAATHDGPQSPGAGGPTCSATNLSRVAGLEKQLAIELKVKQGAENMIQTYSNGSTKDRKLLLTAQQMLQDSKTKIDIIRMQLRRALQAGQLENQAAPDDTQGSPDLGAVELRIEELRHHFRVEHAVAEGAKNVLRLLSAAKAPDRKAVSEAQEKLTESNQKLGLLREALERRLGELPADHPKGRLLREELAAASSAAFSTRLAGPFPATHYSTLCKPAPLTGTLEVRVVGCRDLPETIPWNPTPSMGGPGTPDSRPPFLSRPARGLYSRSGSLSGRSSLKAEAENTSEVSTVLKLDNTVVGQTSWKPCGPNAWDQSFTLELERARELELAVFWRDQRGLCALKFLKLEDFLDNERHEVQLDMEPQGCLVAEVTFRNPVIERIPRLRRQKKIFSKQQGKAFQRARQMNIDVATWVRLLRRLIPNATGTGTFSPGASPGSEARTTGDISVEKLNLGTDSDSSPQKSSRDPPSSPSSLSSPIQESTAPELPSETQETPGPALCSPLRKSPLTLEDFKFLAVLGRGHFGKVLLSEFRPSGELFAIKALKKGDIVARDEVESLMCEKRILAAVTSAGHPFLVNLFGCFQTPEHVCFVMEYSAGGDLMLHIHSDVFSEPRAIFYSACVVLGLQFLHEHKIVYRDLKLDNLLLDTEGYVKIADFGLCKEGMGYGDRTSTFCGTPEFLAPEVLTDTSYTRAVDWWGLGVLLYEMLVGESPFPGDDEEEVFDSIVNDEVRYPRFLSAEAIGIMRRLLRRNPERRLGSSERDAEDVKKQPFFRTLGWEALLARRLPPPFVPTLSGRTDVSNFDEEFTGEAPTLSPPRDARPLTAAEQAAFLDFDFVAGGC
Outline: as §1

[19] = read-out: % Enzyme Activity (relative to DMSO controls) AVG
[20] = read-out: % Enzyme Activity (relative to DMSO controls) Data 1
[21] = read-out: % Enzyme Activity (relative to DMSO controls) Data 2

`CC(C)(C)C(=O)N1N=CC[C@H]1c1ccccc1` [GSK′963] was tested, and the remaining activity at 10 µM [1, 19] was 94%, the remaining activity at 10 µM [1, 20] was 92.9% and the remaining activity at 10 µM [1, 21] was 95.2%. It also gave a remaining activity at 10 µM [2, 19] of 99%, a remaining activity at 10 µM [2, 20] of 99.3% and a remaining activity at 10 µM [2, 21] of 98.6%. For the same molecule, the remaining activity at 10 µM [3, 19] was 103%, the remaining activity at 10 µM [3, 20] was 102% and the remaining activity at 10 µM [3, 21] was 103%. The remaining activity at 10 µM [4, 19] was 98.4%, the remaining activity at 10 µM [4, 20] was 97.8% and the remaining activity at 10 µM [4, 21] was 99%. It also gave a remaining activity at 10 µM [5, 19] of 94.5%, a remaining activity at 10 µM [5, 20] of 90.7% and a remaining activity at 10 µM [5, 21] of 98.3%. It also gave a remaining activity at 10 µM [6, 19] of 88.5%, a remaining activity at 10 µM [6, 20] of 86.8% and a remaining activity at 10 µM [6, 21] of 90.2%. For the same molecule, the remaining activity at 10 µM [7, 19] was 110%, the remaining activity at 10 µM [7, 20] was 108% and the remaining activity at 10 µM [7, 21] was 112%. The remaining activity at 10 µM [8, 19] was 86%, the remaining activity at 10 µM [8, 20] was 86.8% and the remaining activity at 10 µM [8, 21] was 85.3%. It also gave a remaining activity at 10 µM [9, 19] of 106%, a remaining activity at 10 µM [9, 20] of 105% and a remaining activity at 10 µM [9, 21] of 107%. It also gave a remaining activity at 10 µM [10, 19] of 104%, a remaining activity at 10 µM [10, 20] of 104% and a remaining activity at 10 µM [10, 21] of 103%. For the same molecule, the remaining activity at 10 µM [11, 19] was 97.8%, the remaining activity at 10 µM [11, 20] was 96.7% and the remaining activity at 10 µM [11, 21] was 98.9%. For the same molecule, the remaining activity at 10 µM [12, 19] was 104%, the remaining activity at 10 µM [12, 20] was 106% and the remaining activity at 10 µM [12, 21] was 102%. It also gave a remaining activity at 10 µM [13, 19] of 83%, a remaining activity at 10 µM [13, 20] of 86.1% and a remaining activity at 10 µM [13, 21] of 80%. The remaining activity at 10 µM [14, 19] was 95.1%, the remaining activity at 10 µM [14, 20] was 94.1% and the remaining activity at 10 µM [14, 21] was 96.1%. It also gave a remaining activity at 10 µM [15, 19] of 102%, a remaining activity at 10 µM [15, 20] of 102% and a remaining activity at 10 µM [15, 21] of 102%. It also gave a remaining activity at 10 µM [16, 19] of 83.6%, a remaining activity at 10 µM [16, 20] of 83% and a remaining activity at 10 µM [16, 21] of 84.1%. For the same molecule, the remaining activity at 10 µM [17, 19] was 96.2%, the remaining activity at 10 µM [17, 20] was 95.5% and the remaining activity at 10 µM [17, 21] was 97%. The remaining activity at 10 µM [18, 19] was 103%, the remaining activity at 10 µM [18, 20] was 104% and the remaining activity at 10 µM [18, 21] was 102%.

— article PMC4979471 (Cell Death Discovery, 2015)
